Laboratory results taken from PMC4104029, “Mechanism of Action of Compound-13: An α1-Selective Small Molecule Activator of AMPK” (Chemistry & Biology, 2014).

Target: T1, PP2Cα (Homo sapiens, UniProt P35813)
T1 construct: purchased Division of Signal Transduction Therapy (DSTT, Dundee); host or cells: E. coli
Experiment: PP2Cα activity on synthetic peptide substrate
Type: biochemical
Conditions: synthetic peptide substrate EFLR(pT)SCGS
Method: AMPKα1β1γ1 or α2β1γ1 was dephosphorylated in vitro with PP2Cα in 50 mM HEPES pH 7.4, 10 mM MgCl2, 0.1 mM EGTA, 0.03% BRIJ-35, 1 mM DTT, and the indicated compounds for 15 min at 30°C. Mg^2+ was omitted from the negative control. Reactions were terminated by 20-fold dilution and storage on ice. AMPK activity was assayed under standard conditions in the presence of saturating AMP (200 μM). The results are expressed as percentage activity of the negative control. In control experiments, PP2Cα activity was determined in reactions containing 50 mM TES pH 7.4, 0.1 mM EGTA, 25 mM MgCl2, 0.01% BRIJ-35, 0.02% (v/v) 2-mercaptoethanol, and 100 μM EFLR(pT)SCGS (168–176 AMPKα2). Liberated phosphate was determined using malachite green ([Baykov et al., 1988]).
Supplemental Figure Legends:
Figure S1, related to Figures 1-3. […] (A) Heterotrimeric AMPK complexes (10 ng) produced in both Sf9 (Sigma and Signalchem) and E.coli (in our laboratory) were analysed by Western blotting using isoform specific antibodies. […]
Figure S3, related to Figure 2. […] Results are expressed as mean Pi incorporated in nmol.min-1.mg-1 ± SD. […] Results are expressed as fold increase in activity relative to controls in the absence of compound ± SD.
(E) C2 and AMP displace a GST-AMPKγ2 subunit fusion from ATP-γ-Sepharose. […] The presence of eluted AMPKγ2 was analysed by SDS-PAGE and staining with colloidal Coomassie. […]

T1 sequence (P35813 whole entry, species assumed): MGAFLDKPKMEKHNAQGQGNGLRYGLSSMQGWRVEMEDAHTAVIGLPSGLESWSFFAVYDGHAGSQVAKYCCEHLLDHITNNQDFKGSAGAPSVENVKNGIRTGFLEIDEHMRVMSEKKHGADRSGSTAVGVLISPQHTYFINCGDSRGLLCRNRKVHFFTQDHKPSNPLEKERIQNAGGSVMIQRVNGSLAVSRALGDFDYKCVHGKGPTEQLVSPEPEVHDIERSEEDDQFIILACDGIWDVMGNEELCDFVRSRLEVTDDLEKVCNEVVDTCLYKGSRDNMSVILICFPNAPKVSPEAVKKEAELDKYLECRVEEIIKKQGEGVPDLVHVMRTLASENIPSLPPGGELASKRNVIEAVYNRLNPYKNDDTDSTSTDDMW

## O=P(O)(O)c1ccc(-c2cc(O)on2)o1 [Compound C2, 5-(5-hydroxyl-isoxazol-3-yl)-furan-2-phosphonic acid]
  direct effect on PP2Cα activity: no direct effect
